Experimental findings from ChEMBL document CHEMBL3817791, “Discovery of 4-(4-aminopyrazolo[1,5-a][1,3,5]triazin-8-yl)benzamides as novel, highly potent and selective, orally bioavailable inhibitors of Tyrosine Threonine Kinase, TTK” (Bioorg Med Chem Lett, 2016) are described below.

Series [1] has as its target T1, Dual specificity protein kinase TTK (Homo sapiens, UniProt P33981).
T1 sequence (P33981 whole entry): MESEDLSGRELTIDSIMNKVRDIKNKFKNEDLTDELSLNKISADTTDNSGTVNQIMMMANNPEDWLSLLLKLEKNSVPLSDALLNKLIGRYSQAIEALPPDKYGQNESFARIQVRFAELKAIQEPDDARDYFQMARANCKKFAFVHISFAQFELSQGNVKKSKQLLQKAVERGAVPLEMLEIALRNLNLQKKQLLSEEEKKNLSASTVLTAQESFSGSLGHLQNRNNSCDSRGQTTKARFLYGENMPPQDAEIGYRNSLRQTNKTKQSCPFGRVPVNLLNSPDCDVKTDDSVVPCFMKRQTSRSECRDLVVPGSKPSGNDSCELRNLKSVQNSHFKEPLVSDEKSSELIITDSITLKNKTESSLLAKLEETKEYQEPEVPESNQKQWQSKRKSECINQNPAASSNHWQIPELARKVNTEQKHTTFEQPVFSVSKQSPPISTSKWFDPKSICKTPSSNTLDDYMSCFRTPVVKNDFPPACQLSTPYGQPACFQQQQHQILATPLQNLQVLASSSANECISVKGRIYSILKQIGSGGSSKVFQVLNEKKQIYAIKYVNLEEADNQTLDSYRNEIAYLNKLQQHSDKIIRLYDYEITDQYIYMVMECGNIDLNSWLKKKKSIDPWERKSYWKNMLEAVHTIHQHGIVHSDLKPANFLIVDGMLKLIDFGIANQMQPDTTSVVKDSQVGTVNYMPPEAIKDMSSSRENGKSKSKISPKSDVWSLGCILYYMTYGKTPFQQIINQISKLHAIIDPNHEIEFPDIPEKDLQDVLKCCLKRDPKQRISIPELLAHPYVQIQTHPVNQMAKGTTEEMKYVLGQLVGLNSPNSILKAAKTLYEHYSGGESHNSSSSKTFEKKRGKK
Description: Inhibition of TTK (unknown origin).

Series [2] relates to MDA-MB-231. Description: Antiproliferative activity against human MDA-MB-231 cells. The class given is functional.
A short description of series [3]: Antiproliferative activity against human HCT116 cells. The class given is functional. The note with it: HCT-116.
Series [4] can be described thus: Antiproliferative activity against human OVCAR3 cells. The class given is functional. The note with it: OVCAR-3.
For series [5], the system named is HT-29. Kind of series: Antiproliferative activity against human HT-29 cells. The class given is functional.
Series [6] in a line: Antiproliferative activity against human PA1 cells. It is filed as functional. The note with it: PA-1.
The subject of series [7] is MDA-MB-468. Description: Antiproliferative activity against human MDA-MB-468 cells. It is filed as functional.
Series [8] has as its target Cytochrome P450 3A4 (Homo sapiens, UniProt P08684). Description: Inhibition of CYP3A4 (unknown origin). It is filed as ADME.
Series [9] in a line: Half life in mouse microsomes. The class given is ADME, Microsome.
The nature of series [10]: Half life in rat microsomes. It is filed as ADME, Microsome.
The nature of series [11]: Half life in human microsomes. It is filed as ADME, Microsome.
In series [12] the target is Rho-associated protein kinase 2 (Homo sapiens) (UniProt O75116). Kind of series: Inhibition of recombinant human N-terminal His6-tagged ROCK2 (11 to 552 residues) expressed in baculovirus infected Sf21 cells at 1 uM by radiometric assay relative to control.
Rho-associated protein kinase 2 (Homo sapiens), sequence (O75116 whole entry, looked up, the tested form may be a part): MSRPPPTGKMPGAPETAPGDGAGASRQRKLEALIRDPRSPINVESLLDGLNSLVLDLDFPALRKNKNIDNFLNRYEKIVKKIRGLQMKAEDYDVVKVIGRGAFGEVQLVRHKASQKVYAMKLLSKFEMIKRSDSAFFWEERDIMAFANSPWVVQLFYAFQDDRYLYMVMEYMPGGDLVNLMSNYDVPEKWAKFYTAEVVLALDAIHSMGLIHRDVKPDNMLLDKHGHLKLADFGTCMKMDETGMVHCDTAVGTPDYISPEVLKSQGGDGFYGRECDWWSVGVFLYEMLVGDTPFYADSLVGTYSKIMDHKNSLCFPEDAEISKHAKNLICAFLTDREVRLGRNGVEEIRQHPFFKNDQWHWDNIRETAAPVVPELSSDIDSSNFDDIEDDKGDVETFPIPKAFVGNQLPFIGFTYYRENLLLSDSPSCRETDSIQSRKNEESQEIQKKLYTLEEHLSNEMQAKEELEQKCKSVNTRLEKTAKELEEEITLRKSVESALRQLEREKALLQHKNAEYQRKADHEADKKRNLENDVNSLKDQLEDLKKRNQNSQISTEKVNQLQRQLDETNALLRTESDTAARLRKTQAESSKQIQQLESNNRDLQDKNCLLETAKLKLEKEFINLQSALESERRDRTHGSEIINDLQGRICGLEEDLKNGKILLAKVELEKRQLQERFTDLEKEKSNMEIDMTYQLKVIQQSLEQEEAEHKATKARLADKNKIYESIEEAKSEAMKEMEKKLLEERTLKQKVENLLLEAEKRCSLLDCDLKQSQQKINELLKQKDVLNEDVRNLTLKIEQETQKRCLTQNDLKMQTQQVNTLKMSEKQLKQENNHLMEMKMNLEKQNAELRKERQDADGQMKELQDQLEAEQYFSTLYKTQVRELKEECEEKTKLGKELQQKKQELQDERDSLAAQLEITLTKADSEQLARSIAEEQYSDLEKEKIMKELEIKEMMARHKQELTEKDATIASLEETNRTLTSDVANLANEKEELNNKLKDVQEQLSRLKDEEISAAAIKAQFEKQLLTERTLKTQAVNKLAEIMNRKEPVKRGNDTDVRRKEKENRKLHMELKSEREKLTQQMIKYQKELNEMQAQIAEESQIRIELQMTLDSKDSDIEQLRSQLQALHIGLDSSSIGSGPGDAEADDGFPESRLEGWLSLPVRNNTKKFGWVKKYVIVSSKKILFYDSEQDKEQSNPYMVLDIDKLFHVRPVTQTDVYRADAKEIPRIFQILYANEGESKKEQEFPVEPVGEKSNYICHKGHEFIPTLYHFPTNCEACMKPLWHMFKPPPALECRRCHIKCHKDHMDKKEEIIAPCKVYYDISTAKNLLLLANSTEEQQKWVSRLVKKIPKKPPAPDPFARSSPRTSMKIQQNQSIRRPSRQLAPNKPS
Series [13] is described as follows: Cmax in mouse at 10 mg/kg, po. The class given is ADME, organism-based. Also noted: dose 10 mg/kg, route oral. As to conditions: in vivo.
Series [14] is described as follows: AUC in mouse at 10 mg/kg, po. The class given is ADME, organism-based. The note with it: in vivo.
Substrate in series [15]: Cc1cc(-c2cnn3c(NCC4CCOCC4)nc(Oc4ccccc4)nc23)ccc1C(=O)NC1CC1
As to conditions: Homo sapiens.
Description: Inhibition of TTK (unknown origin) assessed as substrate Km(app) at 1.5 nM by double reciprocal plot analysis (Rvb = 8.4 uM)

Substrate in series [16]: Cc1cc(-c2cnn3c(NCC4CCOCC4)nc(Oc4ccccc4)nc23)ccc1C(=O)NC1CC1
As to conditions: Homo sapiens. The source holds these as a separate data set.
Description: Inhibition of TTK (unknown origin) assessed as substrate Km(app) at 4.5 nM by double reciprocal plot analysis (Rvb = 8.4 uM)

Substrate in series [17]: Cc1cc(-c2cnn3c(NCC4CCOCC4)nc(Oc4ccccc4)nc23)ccc1C(=O)NC1CC1
Description: Inhibition of TTK (unknown origin) assessed as substrate Km(app) at 7.5 nM by double reciprocal plot analysis (Rvb = 8.4 uM)
The note with it: Homo sapiens. The source holds these as a separate data set.

Cytochrome P450 3A4, sequence (P08684 whole entry): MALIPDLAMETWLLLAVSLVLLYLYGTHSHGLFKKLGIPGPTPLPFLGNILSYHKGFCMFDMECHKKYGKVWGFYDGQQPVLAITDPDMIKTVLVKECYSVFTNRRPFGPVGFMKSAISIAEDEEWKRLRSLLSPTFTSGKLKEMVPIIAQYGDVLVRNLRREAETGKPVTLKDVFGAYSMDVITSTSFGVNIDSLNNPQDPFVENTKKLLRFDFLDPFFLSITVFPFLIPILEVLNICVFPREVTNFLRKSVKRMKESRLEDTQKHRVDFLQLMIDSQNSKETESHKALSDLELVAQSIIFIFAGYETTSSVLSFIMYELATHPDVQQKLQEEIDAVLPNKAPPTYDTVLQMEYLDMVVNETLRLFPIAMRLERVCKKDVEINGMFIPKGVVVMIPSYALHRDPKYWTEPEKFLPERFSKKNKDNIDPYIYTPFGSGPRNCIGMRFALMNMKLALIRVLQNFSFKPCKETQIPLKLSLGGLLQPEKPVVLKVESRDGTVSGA

For orientation: IC50 means the point on the concentration scale where inhibition reaches its midpoint. A higher IC50 goes with lower potency. `Cc1cc(-c2cnn3c(NCC4CCOCC4)nc(NC4CCCC4)nc23)ccc1NC(=O)C1CC1` gave an IC50 in series [1] of 2000 nM.
The term GI50 denotes the concentration at which growth is held to half of that of the control. A low value points to greater sensitivity of the cells. As for `O=C(NC1CC1)c1ccc(-c2cnn3c(NCC4CCOCC4)nc(NC4CCCC4)nc23)cc1F`, inhibition in [1] was half-maximal at 7 nM (IC50). Moreover, the GI50 in series [2] worked out at 1400 nM; in series [3], 850 nM; in series [4] it was 1700 nM.
`O=C(NC1CC1)c1ccc(-c2cnn3c(NCC4CCOCC4)nc(NC4CCCC4)nc23)cc1` returned an IC50 in series [1] of 10 nM. In addition, the GI50 was 690 nM in series [2], 390 nM in [3] and 1700 nM in series [4].
The matching figures for `Cc1cc(-c2cnn3c(NCC4CCOCC4)nc(NC4CCCCC4)nc23)ccc1C(=O)NC1CC1`: 2.6 nM, 270 nM, 170 nM and 470 nM.
As for `Cc1cc(-c2cnn3c(NCCN4CCOCC4)nc(Oc4cccc(F)c4F)nc23)ccc1C(=O)NC1CC1`, the IC50 in series [1] came to 2.2 nM. Also, the GI50 was 40 nM in series [2]; 14 nM in series [3]; 170 nM in series [4]; 21 nM in [5]; 17 nM in series [6]; 150 nM in [7].
Molecule `O=C(NC1CC1)c1ccc(-c2cnn3c(NCCN4CCOCC4)nc(Oc4ccccc4)nc23)cc1` displayed an IC50 in [1] of 24 nM. For the same molecule, the GI50 in [2] turned out to be 960 nM; in series [3], 880 nM; in series [4], 410 nM.
Take `COCCNc1nc(Oc2ccccc2)nc2c(-c3ccc(C(=O)NC4CC4)cc3)cnn12`: in [1], it took 14 nM to reach half-maximal inhibition (IC50). That is a double-digit nanomolar value.
`Cc1cc(-c2cnn3c(NCC4CCOCC4)nc(OC4CCCC4)nc23)ccc1C(=O)NC1CC1`: half-maximal inhibition in series [1] (IC50) required 2.3 nM. Further, the GI50 in series [2] stood at 230 nM; in series [3], 160 nM; in [4], 590 nM.
Taken in the same sequence, the figures for `CC(=O)Nc1cccc(Oc2nc(NCC3CCOCC3)n3ncc(-c4ccc(C(=O)NC5CC5)c(C)c4)c3n2)c1` were 8.4 nM, 1600 nM, 1300 nM and 1200 nM.
In general, half-life refers to how long it takes for the measured level to halve. The low end stands for rapid decline, the high end for slow decline. For `Cc1cc(-c2cnn3c(NCC4CCOCC4)nc(NC4CCCC4)nc23)ccc1C(=O)NC1CC1`, the GI50 in series [2] was 170 nM; in series [3], 130 nM; in [4], 480 nM; in [5], 84 nM; in [6], 53 nM; in series [7], 320 nM. In addition, the 50% inhibitory concentration (IC50) in series [8] stood at 19000 nM. For the same molecule, the half-life in [9] is 14 min; in series [10], 11 min; in series [11], above 60 min.
The term inhibition denotes the change of the read-out against control, counted positive when it falls. Consider `O=C(N[C@@H](c1ccccn1)C1CC1)c1ccc2[nH]nc(-c3ccc(N4C5CCC4CC(O)C5)cc3)c2c1` (stereo not given in full), for which, in series [12], the inhibition was 50%.
`O=C(NC1CC1)c1ccc(-c2cnn3c(NCC4CCOCC4)nc(Oc4ccccc4)nc23)cc1Cl` yielded an IC50 in series [1] of 1.7 nM. Further, the GI50 worked out at 230 nM in series [2], 160 nM in series [3] and 400 nM in series [4].
Consider `CN(c1nc(NCC2CCOCC2)n2ncc(-c3ccc(C(=O)NC4CC4)c(F)c3)c2n1)C1CCCCC1`, for which it took 15 nM to reach half-maximal inhibition in series [1] (IC50).
The same measure, in the same setting: the figure for `CC(C)NC(=O)c1ccc(-c2cnn3c(NCC4CCOCC4)nc(OC4CCCC4)nc23)cc1` is 230 nM.
Molecule `O=C(NC1CC1)c1ccc(-c2cnn3c(NCC4CCOCC4)nc(N4CCOCC4)nc23)cc1Cl` returned an IC50 in [1] of 32 nM. Also, the GI50 in series [2] was determined as 450 nM; in series [3], 440 nM; in [4], 70 nM.
As for `CC(C)C(=O)Nc1ccc(-c2cnn3c(NCC4CCOCC4)nc(OC4CCCC4)nc23)cc1`, the half-maximal inhibitory concentration (IC50) in series [1] worked out at 1700 nM.
As for `Cc1cc(-c2cnn3c(NCC4CCOCC4)nc(NC4CCOCC4)nc23)ccc1C(=O)NC1CC1`, in series [1], the midpoint of inhibition, the IC50, lay at 9 nM. Further, the GI50 in [2] is 540 nM; in [3], 280 nM; in series [4], 780 nM.
In [1], `Cc1cc(-c2cnn3c(NCC4CCOCC4)nc(Nc4ccccc4)nc23)ccc1C(=O)NC1CC1` returned an IC50 of 11 nM. The concentration for 50% growth inhibition (GI50) in series [2] is 1200 nM; in series [3], 690 nM; in [4], 1700 nM.
Taken in the same sequence, the figures for `O=C(NC1CC1)c1ccc(-c2cnn3c(NCC4CCOCC4)nc(Oc4ccccc4)nc23)cc1` were 4.9 nM, 350 nM, 200 nM and 910 nM.
The term Cmax denotes the maximum level reached in the sampled fluid or tissue. By AUC is commonly meant the area under the concentration-time curve, a measure of exposure. The low end stands for less exposure, the high end for more exposure. On to `Cc1cc(-c2cnn3c(NCC4CCOCC4)nc(Oc4cccc(F)c4F)nc23)ccc1C(=O)NC1CC1`, for which the IC50 was 0.4 nM in series [1] and above 20000 nM in series [8]. Further, the GI50 worked out at 12 nM in series [2], 9 nM in series [3] and 37 nM in series [4]. Moreover, the half-life is 28 min in series [9], 40 min in [10] and above 60 min in series [11]. The molecule also showed a Cmax in [13] of 1600 ng/mL. The AUC in series [14] turned out to be 4000 ng·h/mL.

B1: Dual specificity protein kinase TTK (Homo sapiens), P33981 (protein)
chain: MESEDLSGRELTIDSIMNKVRDIKNKFKNEDLTDELSLNKISADTTDNSGTVNQIMMMANNPEDWLSLLLKLEKNSVPLSDALLNKLIGRYSQAIEALPPDKYGQNESFARIQVRFAELKAIQEPDDARDYFQMARANCKKFAFVHISFAQFELSQGNVKKSKQLLQKAVERGAVPLEMLEIALRNLNLQKKQLLSEEEKKNLSASTVLTAQESFSGSLGHLQNRNNSCDSRGQTTKARFLYGENMPPQDAEIGYRNSLRQTNKTKQSCPFGRVPVNLLNSPDCDVKTDDSVVPCFMKRQTSRSECRDLVVPGSKPSGNDSCELRNLKSVQNSHFKEPLVSDEKSSELIITDSITLKNKTESSLLAKLEETKEYQEPEVPESNQKQWQSKRKSECINQNPAASSNHWQIPELARKVNTEQKHTTFEQPVFSVSKQSPPISTSKWFDPKSICKTPSSNTLDDYMSCFRTPVVKNDFPPACQLSTPYGQPACFQQQQHQILATPLQNLQVLASSSANECISVKGRIYSILKQIGSGGSSKVFQVLNEKKQIYAIKYVNLEEADNQTLDSYRNEIAYLNKLQQHSDKIIRLYDYEITDQYIYMVMECGNIDLNSWLKKKKSIDPWERKSYWKNMLEAVHTIHQHGIVHSDLKPANFLIVDGMLKLIDFGIANQMQPDTTSVVKDSQVGTVNYMPPEAIKDMSSSRENGKSKSKISPKSDVWSLGCILYYMTYGKTPFQQIINQISKLHAIIDPNHEIEFPDIPEKDLQDVLKCCLKRDPKQRISIPELLAHPYVQIQTHPVNQMAKGTTEEMKYVLGQLVGLNSPNSILKAAKTLYEHYSGGESHNSSSSKTFEKKRGKK
The term Km denotes the concentration of substrate that gives half-maximal velocity. For B1, the Km amounted to 17.4 µM in series [15], 39 µM in [16] and 63.4 µM in [17].
